Experimental data published in patent US20260184663A1, “INDENE COMPOUNDS, PHARMACEUTICAL COMPOSITIONS THEREOF, AND THEIR THERAPEUTIC APPLICATIONS” (NucMito Pharmaceuticals co. Ltd., priority 2022, published 2026).
Read-outs that look alike come from different tables or passages of the source.

Key:
Format in all cases: cell-based
[1] = system: MDA-MB-231 (breast cancer); test: Antiproliferative activity (CCK-8 cell viability), MDA-MB-231; settings: Homo sapiens, 72 h, read-out: Antiproliferative activity in cancerous cells, MDA-MB-231 (inhibition of cell growth); for inhibition at 3.3 µM: Compound concentration: 3.3 μM; for inhibition at 10 µM: Compound concentration: 10 μM
How it was run: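 Growth inhibition of human MDA-MB-231 breast cancer cells was assessed with a Cell Counting Kit-8. Cells cultured in DMEM plus 10% FBS were seeded at 2,000-5,000 cells/well, treated after attachment, and kept 72 h at 37° C. CCK-8 solution (10 μL) was added for 4 h, and absorbance at 450 nm was compared with DMSO-treated controls.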

HepG2 (liver cancer) = test: Antiproliferative activity (CCK-8 cell viability), HepG2; settings: Homo sapiens, 72 h, read-out: Antiproliferative activity in cancerous cells, HepG2 (inhibition of cell growth); for inhibition at 3.3 µM: Compound concentration: 3.3 μM; for inhibition at 10 µM: Compound concentration: 10 μM
How it was run: (§1)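 Growth inhibition graded in bands from percent viability against DMSO vehicle, read as CCK-8 absorbance at 450 nm. Compound tested at 3.3, 10 or 30 μM for 72 h, 37 °C; media contained 10% FBS: DMEM for HepG2/SW480, MEM for HeLa, F-12K for A549.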

HeLa (cervical cancer) = test: Antiproliferative activity (CCK-8 cell viability), HeLa; settings: Homo sapiens, 72 h, read-out: Antiproliferative activity in cancerous cells, HELA (inhibition of cell growth); for inhibition at 3.3 µM: Compound concentration: 3.3 μM; for inhibition at 10 µM: Compound concentration: 10 μM
How it was run: as §1

[2] = system: A549 (lung adenocarcinoma); test: Antiproliferative activity (CCK-8 cell viability), A549; settings: Homo sapiens, 72 h; for inhibition at 3.3 µM: Compound concentration: 3.3 μM; for inhibition at 10 µM: Compound concentration: 10 μM; for inhibition at 30 µM: Compound concentration: 30 μM
How it was run: as §1

[3] = system: A431 (epidermoid carcinoma); test: Antiproliferative activity (CCK-8 cell viability), A431; settings: Homo sapiens, 72 h; for inhibition at 3.3 µM: A-431, Compound concentration: 3.3 μM; for inhibition at 10 µM: A-431, Compound concentration: 10 μM; for inhibition at 30 µM: A-431, Compound concentration: 30 μM
How it was run: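 This growth inhibition assay used A431 cells maintained in Dulbecco's modified Eagle's medium plus 10% fetal bovine serum. Cells were seeded in 96-well plates, treated with compound for 72 h at 37° C., and then given 10 μL CCK-8 solution. After a further 4 h, absorbance was read at 450 nm.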

[4] = system: B16F10 (malignant melanoma); test: Antiproliferative activity (CCK-8 cell viability), B16F10; settings: Mus musculus, 72 h, read-out: Antiproliferative activity in cancerous cells, B16F10 (inhibition of cell growth); for inhibition at 3.3 µM: B16-F10, Compound concentration: 3.3 μM; for inhibition at 10 µM: B16-F10, Compound concentration: 10 μM
How it was run: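 Cell growth inhibition was measured in B16F10 malignant melanoma cells with a Cell Counting Kit-8 viability assay. Cells were maintained in DMEM plus 10% fetal bovine serum, seeded at 2,000-5,000 cells/well in 96-well plates, and treated for 72 h at 37° C. Viability was expressed relative to DMSO-treated vehicle control wells.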

SW480 (colon cancer) = test: Antiproliferative activity (CCK-8 cell viability), SW480; settings: Homo sapiens, 72 h; for inhibition at 3.3 µM: Compound concentration: 3.3 μM; for inhibition at 10 µM: Compound concentration: 10 μM; for inhibition at 30 µM: Compound concentration: 30 μM
How it was run: as §1

[5] = read-out: Antiproliferative activity in cancerous cells, A549 (inhibition of cell growth)
[6] = read-out: Antiproliferative activity in cancerous cells, A431 (inhibition of cell growth)
[7] = read-out: Antiproliferative activity in cancerous cells, SW480 (inhibition of cell growth)

Compound	inhibition at 3.3 µM [1] [%]	inhibition at 10 µM [1] [%]	inhibition at 3.3 µM (HepG2 (liver cancer)) [%]	inhibition at 10 µM (HepG2 (liver cancer)) [%]	inhibition at 3.3 µM (HeLa (cervical cancer)) [%]	inhibition at 10 µM (HeLa (cervical cancer)) [%]	inhibition at 3.3 µM [2, 5] [%]	inhibition at 10 µM [2, 5] [%]	inhibition at 3.3 µM [3, 6] [%]	inhibition at 10 µM [3, 6] [%]	inhibition at 3.3 µM [4] [%]	inhibition at 10 µM [4] [%]	inhibition at 3.3 µM (SW480 (colon cancer); [7]) [%]	inhibition at 10 µM (SW480 (colon cancer); [7]) [%]	other results
CC1=C(CC(=O)O)c2cc(F)ccc2/C1=C\c1cccc(Oc2ccc(I)cc2)c1 [C100, (Z)-2-(5-Fluoro-1-(3-(4-iodophenoxy)benzylidene)-2-methyl-1H-inden-3-yl)acetic acid]	< 30	< 30	< 30	≥ 50	< 30	≥ 50	< 30	30 to 50	< 30	< 30	< 30	30 to 50	< 30	< 30	
CC1=C(CC(=O)O)c2cc(F)ccc2/C1=C\c1ccc(COCc2ccc(F)c(F)c2)cc1 [B105, (Z)-2-(1-(4-(((3,4-Difluorobenzyl)oxy)methyl)benzylidene)-5-fluoro-2-methyl-1H-inden-3-yl)acetic acid]	30 to 50	≥ 50	< 30	≥ 50	≥ 50	≥ 50	30 to 50	≥ 50	30 to 50	≥ 50	30 to 50	≥ 50	30 to 50	≥ 50	
CC1=C(CC(=O)O)c2cc(F)ccc2/C1=C\c1ccc(CSc2nc3ccccc3[nH]2)cc1 [B44, (Z)-2-(1-(4-(((1H-Benzo[d]imidazol-2-yl)thio)methyl)benzylidene)-5-fluoro-2-methyl-1H-inden-3-yl)acetic acid]	≥ 50	≥ 50	≥ 50	≥ 50	≥ 50	≥ 50	< 30	≥ 50	< 30	≥ 50	≥ 50	≥ 50	30 to 50	≥ 50	
CC1=C(CC(=O)O)c2cc(Cl)ccc2/C1=C/c1ccc(Oc2ccc(F)cc2)cc1 [E41, (E)-2-(5-Chloro-1-(4-(4-fluorophenoxy)benzylidene)-2-methyl-1H-inden-3-yl)acetic acid]	< 30	≥ 50	< 30	≥ 50	< 30	≥ 50	< 30	30 to 50	≥ 50	≥ 50	< 30	≥ 50	30 to 50	≥ 50	inhibition at 30 µM ([1]; Compound concentration: 30 μM): ≥ 50%; inhibition at 30 µM (HepG2 (liver cancer); Compound concentration: 30 μM): ≥ 50%; inhibition at 30 µM (HeLa (cervical cancer); Compound concentration: 30 μM): ≥ 50%; inhibition at 30 µM [2, 5]: ≥ 50%; inhibition at 30 µM [3, 6]: ≥ 50%; inhibition at 30 µM ([4]; B16-F10, Compound concentration: 30 μM): ≥ 50%; inhibition at 30 µM (SW480 (colon cancer); [7]): ≥ 50%
COc1ccc(S(=O)(=O)c2ccc(/C=C3/C(C)=C(CC(=O)O)c4cc(F)ccc43)cc2)cc1 [C41, (Z)-2-(5-Fluoro-1-(4-((4-methoxyphenyl)sulfonyl)benzylidene)-2-methyl-1H-inden-3-yl)acetic acid]	≥ 50	≥ 50	< 30	≥ 50	< 30	≥ 50	< 30	≥ 50	30 to 50	≥ 50	30 to 50	≥ 50	< 30	≥ 50	
CC1=C(CCOC(=O)N(C)N)c2cc(F)ccc2/C1=C\c1ccc(Oc2ccc(F)cc2)cc1 [A205, (Z)-2-(5-Fluoro-1-(4-(4-fluorophenoxy)benzylidene)-2-methyl-1H-inden-3-yl)ethyl 1-methylhydrazine-1-carboxylate]	< 30	≥ 50	30 to 50	≥ 50	30 to 50	≥ 50	< 30	< 30	< 30	< 30	< 30	< 30	< 30	< 30	inhibition at 30 µM ([2]; read-out: Antiproliferative activity in cancerous cells, A549): 30 to 50%; inhibition at 30 µM ([3]; read-out: Antiproliferative activity in cancerous cells, A431): 30 to 50%; inhibition at 30 µM (SW480 (colon cancer); read-out: Antiproliferative activity in cancerous cells, SW480): 30 to 50%
COc1ccc2c(c1)C(CC(=O)O)=C(C)/C2=C/c1ccc(COCc2ccc(Cl)cc2)cc1 [B118, (Z)-2-(1-(4-(((4-Chlorobenzyl)oxy)methyl)benzylidene)-5-methoxy-2-methyl-1H-inden-3-yl)acetic acid]	< 30	< 30	< 30	≥ 50	< 30	≥ 50	30 to 50	≥ 50	≥ 50	≥ 50	≥ 50	≥ 50	≥ 50	≥ 50	
CC1=C(CC(=O)O)c2cc(F)ccc2/C1=C\c1ccc(CCOc2ccc(F)cc2)cc1 [B33, (Z)-2-(5-Fluoro-1-(4-(2-(4-fluorophenoxy)ethyl)benzylidene)-2-methyl-1H-inden-3-yl)acetic acid]	< 30	30 to 50	< 30	30 to 50	< 30	30 to 50	< 30	30 to 50	≥ 50	≥ 50	≥ 50	≥ 50	< 30	30 to 50	
CC1=C(CC(=O)O)c2cc(F)ccc2/C1=C\c1ccc(Oc2ccc(Cl)cc2Cl)cc1 [C66, (Z)-2-(1-(4-(2,4-Dichlorophenoxy)benzylidene)-5-fluoro-2-methyl-1H-inden-3-yl)acetic acid]	< 30	≥ 50	≥ 50	≥ 50	≥ 50	≥ 50	30 to 50	≥ 50	≥ 50	≥ 50	< 30	≥ 50	< 30	< 30	
